Reference: ChEMBL document CHEMBL1909046, “DrugMatrix in vitro pharmacology data”

Assays:
[1] = target: T1, 5-hydroxytryptamine receptor 2C (Homo sapiens, UniProt P28335); assay: DRUGMATRIX: Serotonin (5-Hydroxytryptamine) 5-HT2C radioligand binding (ligand: [3H] Mesulergine); assay type: cell membranes, CHO-K1, Membrane; conditions: cho-k1; Not Active = under 50% inhibition at 10 µM
T1 sequence (P28335 whole entry): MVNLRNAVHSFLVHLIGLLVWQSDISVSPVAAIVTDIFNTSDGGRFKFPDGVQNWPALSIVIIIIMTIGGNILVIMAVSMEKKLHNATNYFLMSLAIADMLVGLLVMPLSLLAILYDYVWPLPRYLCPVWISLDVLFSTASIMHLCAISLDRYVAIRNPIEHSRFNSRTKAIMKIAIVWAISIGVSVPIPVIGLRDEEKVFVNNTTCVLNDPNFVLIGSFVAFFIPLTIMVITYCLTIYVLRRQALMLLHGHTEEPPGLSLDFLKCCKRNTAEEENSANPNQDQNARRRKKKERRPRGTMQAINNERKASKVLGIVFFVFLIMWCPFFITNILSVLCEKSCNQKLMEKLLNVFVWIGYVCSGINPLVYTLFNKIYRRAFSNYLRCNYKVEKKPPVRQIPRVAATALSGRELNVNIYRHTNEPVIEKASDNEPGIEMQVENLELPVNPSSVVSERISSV

[2] = target: T2, Leukotriene C4 synthase (Cavia porcellus, UniProt A6XA80); assay: biochemical; assay type: tissue-based, Lung;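 note: enzyme inhibition assay of leukotriene C4 synthase, using LTA4 as the substrate; in other assays of this panel Not Active means under 50% inhibition at 10 µM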
T2 sequence (A6XA80 whole entry): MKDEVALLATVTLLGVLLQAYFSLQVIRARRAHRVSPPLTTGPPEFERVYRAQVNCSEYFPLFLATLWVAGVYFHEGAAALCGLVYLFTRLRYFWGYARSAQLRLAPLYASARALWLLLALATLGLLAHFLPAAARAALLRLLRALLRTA

[3] = target: T3, Muscarinic acetylcholine receptor M4 (Homo sapiens, UniProt P08173); assay type: cell membranes, CHO-K1, Membrane; conditions: cho-k1; note: in other assays of this panel Not Active means under 50% inhibition at 10 µM
T3 sequence (P08173 whole entry): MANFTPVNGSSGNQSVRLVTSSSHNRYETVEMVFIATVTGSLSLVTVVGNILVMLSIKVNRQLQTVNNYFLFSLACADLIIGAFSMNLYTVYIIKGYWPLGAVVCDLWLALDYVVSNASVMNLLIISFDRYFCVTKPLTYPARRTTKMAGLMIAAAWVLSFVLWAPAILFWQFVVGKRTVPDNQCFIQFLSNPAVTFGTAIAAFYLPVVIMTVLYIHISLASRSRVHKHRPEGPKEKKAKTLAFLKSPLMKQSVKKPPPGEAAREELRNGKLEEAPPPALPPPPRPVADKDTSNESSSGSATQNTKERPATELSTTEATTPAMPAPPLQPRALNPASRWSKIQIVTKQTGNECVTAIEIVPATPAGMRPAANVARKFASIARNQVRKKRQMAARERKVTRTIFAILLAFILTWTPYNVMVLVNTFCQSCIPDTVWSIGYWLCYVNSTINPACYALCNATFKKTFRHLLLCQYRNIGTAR

[4] = target: Acetylcholinesterase (Homo sapiens, UniProt P22303); assay: DRUGMATRIX: Acetylcholinesterase enzyme inhibition (substrate: acetylthiocholine); assay type: cell-based, HEK293; conditions: hek293; Not Active = under 50% inhibition at 10 µM
Acetylcholinesterase, sequence (P22303 whole entry): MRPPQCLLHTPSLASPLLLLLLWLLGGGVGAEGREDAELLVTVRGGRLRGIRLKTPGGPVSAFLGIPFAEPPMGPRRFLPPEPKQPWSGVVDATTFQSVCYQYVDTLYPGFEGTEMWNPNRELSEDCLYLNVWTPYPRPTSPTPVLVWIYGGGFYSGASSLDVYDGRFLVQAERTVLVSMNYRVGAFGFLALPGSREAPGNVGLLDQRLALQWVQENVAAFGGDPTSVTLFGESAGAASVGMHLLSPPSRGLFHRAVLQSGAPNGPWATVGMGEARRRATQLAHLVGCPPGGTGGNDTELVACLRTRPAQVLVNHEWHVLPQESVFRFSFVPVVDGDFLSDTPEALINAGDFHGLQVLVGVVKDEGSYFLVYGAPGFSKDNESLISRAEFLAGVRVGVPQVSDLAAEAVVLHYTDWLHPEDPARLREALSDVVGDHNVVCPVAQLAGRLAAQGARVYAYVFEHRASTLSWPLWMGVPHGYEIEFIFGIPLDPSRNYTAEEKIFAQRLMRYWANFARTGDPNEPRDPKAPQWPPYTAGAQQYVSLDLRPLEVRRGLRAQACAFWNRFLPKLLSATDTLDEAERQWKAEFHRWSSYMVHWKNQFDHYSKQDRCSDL

[5] = target: Histamine H2 receptor (Homo sapiens, UniProt P25021); assay type: cell membranes, CHO-K1, Membrane; conditions: cho-k1; note: in other assays of this panel Not Active means under 50% inhibition at 10 µM
Histamine H2 receptor, sequence (P25021 whole entry): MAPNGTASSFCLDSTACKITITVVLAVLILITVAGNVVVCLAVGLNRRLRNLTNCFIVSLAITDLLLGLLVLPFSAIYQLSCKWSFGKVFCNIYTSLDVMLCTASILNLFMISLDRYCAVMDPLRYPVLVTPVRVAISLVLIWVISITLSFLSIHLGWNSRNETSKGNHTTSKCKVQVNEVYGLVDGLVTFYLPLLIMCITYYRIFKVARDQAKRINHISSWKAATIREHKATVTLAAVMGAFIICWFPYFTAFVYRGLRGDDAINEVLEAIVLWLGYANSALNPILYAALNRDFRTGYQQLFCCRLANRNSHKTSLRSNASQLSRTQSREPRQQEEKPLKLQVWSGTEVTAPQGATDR

[6] = target: Melanocortin receptor 4 (Homo sapiens, UniProt P32245); assay type: cell membranes, Membrane; conditions: hek293; note: in other assays of this panel Not Active means under 50% inhibition at 10 µM
Melanocortin receptor 4, sequence (P32245 whole entry): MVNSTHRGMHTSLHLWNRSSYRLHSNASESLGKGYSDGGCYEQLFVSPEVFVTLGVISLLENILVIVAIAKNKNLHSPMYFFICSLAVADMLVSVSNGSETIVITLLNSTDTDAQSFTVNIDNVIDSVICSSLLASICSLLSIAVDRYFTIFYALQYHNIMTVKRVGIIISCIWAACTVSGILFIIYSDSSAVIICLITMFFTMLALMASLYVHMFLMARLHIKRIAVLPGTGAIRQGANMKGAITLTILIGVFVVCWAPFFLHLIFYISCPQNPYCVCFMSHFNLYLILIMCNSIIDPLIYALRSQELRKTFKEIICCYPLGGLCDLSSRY

[7] = target: Beta-1 adrenergic receptor (Homo sapiens, UniProt P08588); assay: DRUGMATRIX: Adrenergic beta1 radioligand binding (ligand: [125I] Cyanopindolol); assay type: cell membranes, CHO-K1, Membrane; conditions: cho-k1; Not Active = under 50% inhibition at 10 µM
Beta-1 adrenergic receptor, sequence (P08588 whole entry): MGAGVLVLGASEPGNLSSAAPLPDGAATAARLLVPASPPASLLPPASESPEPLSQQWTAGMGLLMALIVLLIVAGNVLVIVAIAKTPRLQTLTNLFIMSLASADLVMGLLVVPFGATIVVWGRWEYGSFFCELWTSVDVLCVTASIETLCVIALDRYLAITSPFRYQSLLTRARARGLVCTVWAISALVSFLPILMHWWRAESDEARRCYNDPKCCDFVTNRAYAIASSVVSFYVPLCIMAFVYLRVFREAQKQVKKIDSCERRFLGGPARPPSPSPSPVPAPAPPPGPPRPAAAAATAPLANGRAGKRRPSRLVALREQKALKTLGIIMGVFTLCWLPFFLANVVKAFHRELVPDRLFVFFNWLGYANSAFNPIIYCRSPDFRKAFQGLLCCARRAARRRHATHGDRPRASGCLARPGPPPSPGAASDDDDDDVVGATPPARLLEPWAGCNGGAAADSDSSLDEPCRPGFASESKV

[8] = target: Mu-type opioid receptor (Homo sapiens, UniProt P35372); assay: DRUGMATRIX: Opiate mu (OP3, MOP) radioligand binding (ligand: [3H] Diprenorphine); assay type: cell membranes, CHO-K1, Membrane; conditions: cho-k1; Not Active = under 50% inhibition at 10 µM
Mu-type opioid receptor, sequence (P35372 whole entry): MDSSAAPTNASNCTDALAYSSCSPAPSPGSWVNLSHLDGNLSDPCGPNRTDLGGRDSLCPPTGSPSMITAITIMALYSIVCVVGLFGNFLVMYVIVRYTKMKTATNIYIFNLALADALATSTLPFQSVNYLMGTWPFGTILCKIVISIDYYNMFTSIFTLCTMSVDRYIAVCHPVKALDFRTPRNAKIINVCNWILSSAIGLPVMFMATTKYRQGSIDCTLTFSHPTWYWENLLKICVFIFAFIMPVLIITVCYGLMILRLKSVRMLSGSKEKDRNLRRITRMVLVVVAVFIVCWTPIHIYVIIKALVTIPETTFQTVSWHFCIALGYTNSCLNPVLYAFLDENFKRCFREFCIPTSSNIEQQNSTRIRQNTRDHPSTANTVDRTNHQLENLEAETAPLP

[9] = DRUGMATRIX: Potassium Channel [KATP] radioligand binding (ligand: [3H] Glyburide); assay type: cell membranes, Membrane; conditions: hit-t15; Not Active = under 50% inhibition at 10 µM
[10] = target: T4, Calcitonin receptor (Homo sapiens, UniProt P30988); assay type: cell membranes, Membrane; conditions: t47d; note: in other assays of this panel Not Active means under 50% inhibition at 10 µM
T4 sequence (P30988 whole entry): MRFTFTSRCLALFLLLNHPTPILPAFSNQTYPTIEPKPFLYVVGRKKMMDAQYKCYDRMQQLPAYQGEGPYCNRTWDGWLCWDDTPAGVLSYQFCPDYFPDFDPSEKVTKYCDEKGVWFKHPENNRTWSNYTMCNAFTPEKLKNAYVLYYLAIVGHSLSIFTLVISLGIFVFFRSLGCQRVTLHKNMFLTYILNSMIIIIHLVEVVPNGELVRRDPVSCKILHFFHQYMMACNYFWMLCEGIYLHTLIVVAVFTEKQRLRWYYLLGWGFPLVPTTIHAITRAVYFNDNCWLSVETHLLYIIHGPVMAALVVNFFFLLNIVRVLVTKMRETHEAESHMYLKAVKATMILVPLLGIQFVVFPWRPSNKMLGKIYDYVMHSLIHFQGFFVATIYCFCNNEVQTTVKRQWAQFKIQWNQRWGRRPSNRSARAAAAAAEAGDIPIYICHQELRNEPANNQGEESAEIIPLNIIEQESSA

[11] = target: T5, Neuropeptide Y receptor type 1 (Homo sapiens, UniProt P25929); assay type: cell membranes, Membrane; conditions: sk-n-mc; note: in other assays of this panel Not Active means under 50% inhibition at 10 µM
T5 sequence (P25929 whole entry): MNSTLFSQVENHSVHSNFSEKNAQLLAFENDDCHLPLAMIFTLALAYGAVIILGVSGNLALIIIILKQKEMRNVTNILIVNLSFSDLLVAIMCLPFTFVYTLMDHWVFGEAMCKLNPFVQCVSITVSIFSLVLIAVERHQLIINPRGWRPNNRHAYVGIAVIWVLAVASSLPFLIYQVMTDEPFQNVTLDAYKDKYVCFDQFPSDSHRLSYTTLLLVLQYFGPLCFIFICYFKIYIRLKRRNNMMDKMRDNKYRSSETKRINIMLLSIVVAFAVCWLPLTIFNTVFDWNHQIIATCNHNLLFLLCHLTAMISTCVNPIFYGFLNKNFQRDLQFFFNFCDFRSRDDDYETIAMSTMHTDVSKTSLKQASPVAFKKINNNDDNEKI

[12] = target: Adenosine receptor A2a (Homo sapiens, UniProt P29274); assay: DRUGMATRIX: Adenosine A2A radioligand binding (ligand: […]); assay type: cell membranes, HEK293, Membrane; conditions: hek293; Not Active = under 50% inhibition at 10 µM
Adenosine receptor A2a, sequence (P29274 whole entry): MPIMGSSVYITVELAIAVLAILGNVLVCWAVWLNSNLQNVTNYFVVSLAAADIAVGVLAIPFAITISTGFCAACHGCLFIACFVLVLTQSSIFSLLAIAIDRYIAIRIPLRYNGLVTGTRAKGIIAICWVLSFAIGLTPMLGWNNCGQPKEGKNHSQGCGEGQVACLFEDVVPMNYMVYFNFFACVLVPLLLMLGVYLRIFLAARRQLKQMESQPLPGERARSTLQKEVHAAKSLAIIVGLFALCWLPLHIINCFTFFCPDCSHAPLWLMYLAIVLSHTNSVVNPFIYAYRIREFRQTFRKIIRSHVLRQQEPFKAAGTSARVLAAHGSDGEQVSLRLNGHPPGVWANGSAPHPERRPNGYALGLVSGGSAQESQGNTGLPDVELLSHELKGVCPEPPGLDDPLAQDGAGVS

[13] = target: Protein kinase C alpha type (Homo sapiens, UniProt P17252); assay type: cell-based; conditions: sf9

CC[C@H]1OC(=O)[C@H](C)[C@@H](O[C@H]2C[C@@](C)(OC)[C@@H](O)[C@H](C)O2)[C@H](C)[C@@H](O[C@@H]2O[C@H](C)C[C@H](N(C)C)[C@H]2O)[C@](C)(O)C[C@@H](C)/C(=N\OCOCCOC)[C@H](C)[C@@H](O)[C@]1(C)O [ROXITHROMYCIN]
Not Active: IC50 [1] | IC50 [2] | IC50 [3] | IC50 [4] | IC50 [5] | IC50 [6] | IC50 [7] | IC50 [8] | IC50 [9] | Ki [9] | IC50 [10] | IC50 [11] | IC50 [12] | IC50 [13]

CCOC(=O)[C@H](CCc1ccccc1)N[C@@H](C)C(=O)N1[C@H](C(=O)O)C[C@@H]2CCC[C@@H]21
Not Active: IC50 [1] | IC50 [2] | IC50 [3] | IC50 [4] | IC50 [5] | IC50 [6] | IC50 [7] | IC50 [8] | IC50 [9] | Ki [9] | IC50 [10] | IC50 [11] | IC50 [12] | IC50 [13]

NNC(=O)c1ccncc1 [ISONIAZID]
Not Active: IC50 [1] | IC50 [2] | IC50 [3] | IC50 [4] | IC50 [5] | IC50 [6] | IC50 [7] | IC50 [8] | IC50 [9] | Ki [9] | IC50 [10] | IC50 [11] | IC50 [12] | IC50 [13]

Nc1nnc(-c2cccc(Cl)c2Cl)c(N)n1 [LAMOTRIGINE]
Not Active: IC50 [1] | IC50 [2] | IC50 [3] | IC50 [4] | IC50 [5] | IC50 [6] | IC50 [7] | IC50 [8] | IC50 [9] | Ki [9] | IC50 [10] | IC50 [11] | IC50 [12] | IC50 [13]

C[C@]12Cc3c[nH]nc3C[C@@H]1CC[C@@H]1[C@@H]2CC[C@@]2(C)[C@H]1CC[C@]2(C)O [STANOZOLOL]
Not Active: IC50 [1] | IC50 [2] | IC50 [3] | IC50 [4] | IC50 [5] | IC50 [6] | IC50 [7] | IC50 [8] | IC50 [9] | Ki [9] | IC50 [10] | IC50 [11] | IC50 [12] | IC50 [13]

CC1=C(/C=C/C(C)=C/C=C/C(C)=C\C(=O)O)C(C)(C)CCC1 [ISOTRETINOIN]
Not Active: IC50 [1] | IC50 [2] | IC50 [3] | IC50 [4] | IC50 [5] | IC50 [6] | Ki [7] | IC50 [8] | IC50 [9] | Ki [9] | IC50 [10] | IC50 [11] | IC50 [12] | IC50 [13]

NC(CO)(CO)CO [TROMETHAMINE]
Not Active: IC50 [1] | IC50 [2] | IC50 [3] | IC50 [4] | IC50 [5] | IC50 [6] | IC50 [7] | IC50 [8] | IC50 [9] | Ki [9] | IC50 [10] | IC50 [11] | IC50 [12] | IC50 [13]

Cc1ccc(C(=O)C(C)CN2CCCCC2)cc1 (stereo not given) [TOLPERISONE]
Not Active: IC50 [1] | IC50 [2] | IC50 [3] | IC50 [4] | IC50 [5] | IC50 [6] | IC50 [7] | IC50 [8] | IC50 [9] | Ki [9] | IC50 [10] | IC50 [11] | IC50 [12] | IC50 [13]

CN(N=O)C(=O)N[C@@H](C=O)[C@@H](O)[C@H](O)[C@H](O)CO [STREPTOZOCIN]
Not Active: IC50 [1] | IC50 [2] | IC50 [3] | IC50 [4] | IC50 [5] | IC50 [6] | IC50 [7] | IC50 [8] | IC50 [9] | Ki [9] | IC50 [10] | IC50 [11] | IC50 [12] | IC50 [13]

NC(=O)c1ncn([C@@H]2O[C@H](CO)[C@@H](O)[C@H]2O)n1 [RIBAVIRIN]
Not Active: IC50 [1] | IC50 [2] | IC50 [3] | IC50 [4] | IC50 [5] | IC50 [6] | IC50 [7] | IC50 [8] | IC50 [9] | Ki [9] | IC50 [10] | IC50 [11] | IC50 [12] | IC50 [13]
